Results on 22 compounds are retold here after ChEMBL document CHEMBL1134920, “1,3,4-Trisubstituted pyrrolidine CCR5 receptor antagonists. Part 4: synthesis of N-1 acidic functionality affording analogues with enhanced antiviral activity against HIV” (Bioorg Med Chem Lett, 2002).

Data set [1] relates to Human immunodeficiency virus 1. As to the kind of experiment: In vitro inhibition of HIV-1 BAL strain infection of HeLa cell line. The class given is functional. The following applies: Human immunodeficiency virus 1, HeLa.
The target of data set [2] is C-C chemokine receptor type 5 (Homo sapiens, UniProt P51681). Briefly: In vitro binding affinity at CCR5 receptor in the presence of [125I]-MIP-1 alpha.
Sequence of C-C chemokine receptor type 5 (P51681 whole entry): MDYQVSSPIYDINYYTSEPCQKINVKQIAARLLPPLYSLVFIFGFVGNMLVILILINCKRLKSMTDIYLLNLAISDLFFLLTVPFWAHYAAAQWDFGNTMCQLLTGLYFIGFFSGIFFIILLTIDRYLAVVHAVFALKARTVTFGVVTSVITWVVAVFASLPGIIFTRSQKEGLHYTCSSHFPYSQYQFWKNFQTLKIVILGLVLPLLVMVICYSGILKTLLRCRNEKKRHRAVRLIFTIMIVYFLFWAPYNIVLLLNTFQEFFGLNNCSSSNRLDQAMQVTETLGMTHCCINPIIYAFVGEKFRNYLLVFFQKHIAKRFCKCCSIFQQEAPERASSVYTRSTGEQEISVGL
Data set [3] in a line: Plasma clearance in rat. The class given is ADME, organism-based. Conditions: read-out: Clp.
Data set [4] can be described thus: Inhibitory concentration was determined against peripheral blood mononuclear cells (PBMC). The class given is functional.
Data set [5] is described as follows: Bioavailability in rat. The class given is ADME, organism-based. Conditions: in vivo.
Data set [6] can be described thus: Volume of distribution in steady state was determined in rat. In kind it is ADME, organism-based. The following applies: in vivo, read-out: Vdss.
Data set [7] in a line: Half-life in rat. In kind it is ADME, organism-based. Conditions: in vivo.
Data set [8] addresses Voltage-gated L-type calcium channel (Homo sapiens, UniProt Q13936+Q13698+Q01668+O60840). Briefly: Inhibition of L-type Ca+2 channels. In kind it is protein assay.
Data set [9] can be described thus: Bioavailability in Rhesus monkey. The class given is ADME, organism-based, Macaca mulatta. The following applies: in vivo.
Data set [10] is described as follows: Plasma clearance in dog. The following applies: read-out: Clp. In kind it is ADME, organism-based, Canis lupus familiaris.
The nature of data set [11]: Plasma clearance in rhesus monkey. In kind it is ADME, organism-based. The following applies: cercopithecidae, read-out: Clp.
Data set [12] in a line: Volume of distribution in steady state was determined in rhesus monkey. Conditions: cercopithecidae, in vivo; read-out: Vdss. In kind it is ADME, organism-based.
Data set [13] can be described thus: Volume of distribution in steady state was determined in dog. In kind it is ADME, organism-based, Canis lupus familiaris. Conditions: in vivo, read-out: Vdss.
Data set [14] in a line: Bioavailability in dog. The class given is ADME, organism-based, Canis lupus familiaris. The following applies: in vivo.
The nature of data set [15]: Half-life in dog. The class given is ADME, organism-based, Canis lupus familiaris. The following applies: in vivo.
The nature of data set [16]: Half-life in rhesus monkey. Conditions: cercopithecidae, in vivo. The class given is ADME.
Data set [17] is filed under the species Macaca mulatta. Briefly: Plasma clearance in rhesus monkey. The following applies: read-out: Clp.

Structures are written as SMILES.

As to `O=C(OCc1ccccc1)[C@@H](C1CCCCC1)N1C[C@H](CN2CCC(O)(CCCc3ccccc3)CC2)[C@@H](c2ccccc2)C1`, in [1], the IC90 (in general, the concentration needed for an effect of 90%) was greater than 300 nM. The IC50 (in general, the concentration that inhibits the measured activity by half) in [2] worked out at 3.6 nM.

Consider `C[C@H](C(=O)O)N1C[C@H](CN2CCC(O)(CCCc3ccccc3)CC2)[C@@H](c2ccccc2)C1`, for which the IC90 in data set [1] amounted to 333 nM. In addition, in data set [2], the half-maximal inhibitory concentration (IC50) came to 3 nM.

`O=C(O)[C@@H](C1CCCCC1)N1C[C@H](CN2CCC(O)(CCCc3ccccc3)CC2)[C@@H](c2ccccc2)C1`: the clearance in data set [3] was determined as 128 mL/min/kg. Also, in data set [1], the IC90 came out at 11 nM. In addition, the IC95 (in general, the concentration needed for an effect of 95%) in [4] stood at 187 nM. Further, in [5], the bioavailability – broadly, the share of a dose that reaches the circulation, judged against a reference dose that is usually intravenous – was found to be 0%. Besides, in data set [6], the Vd turned out to be 15 L/kg. Besides, in data set [7], the half-life (in general, the time needed for the level to fall by half in the phase considered) is 1.8 h. The IC50 in data set [2] came to 0.5 nM.

In [1], `O=C(O)[C@@H](C1CCC1)N1C[C@H](CN2CCC(CCCc3ccccc3)CC2)[C@@H](c2ccccc2)C1` came in with an IC90 of 11 nM. In [2], the 50% inhibitory concentration (IC50) was found to be 0.1 nM.

Turning to `O=C(O)[C@@H](C1CCCCC1)N1C[C@H](CN2CCC(CCCc3ccccc3)CC2)[C@@H](c2ccccc2)C1`, the half-maximal inhibitory concentration (IC50) amounted to 5300 nM in data set [8] and 0.1 nM in data set [2]. The clearance is 17.6 mL/min/kg in data set [3], 10.9 mL/min/kg in data set [10] and 17.1 mL/min/kg in data set [11]. Besides, the bioavailability was 10% in data set [9], 26% in [5] and 43% in data set [14]. The compound further showed a concentration for an effect of 90% (IC90) in data set [1] of 11 nM. The compound also returned an IC95 in data set [4] of 77 nM. Moreover, the Vd in data set [12] was determined as 6.2 L/kg; in [6], 3.3 L/kg; in [13] it was 3.1 L/kg. Also, the values for the half-life in [7], in [15] and in data set [16] were 2.1 h, 9.2 h and 6.3 h, respectively.

Compound `O=C(O)[C@@H](C1CCCCC1)N1C[C@H](CN2CCC(c3ccc(F)cc3)CC2)[C@@H](c2ccccc2)C1` showed an IC90 in data set [1] of 0.4 nM. The IC50 in data set [2] is 4 nM.

Compound `OC[C@@H](C1CCCCC1)N1C[C@H](CN2CCC(O)(CCCc3ccccc3)CC2)[C@@H](c2ccccc2)C1` showed an IC90 in data set [1] of 300 nM. In data set [2], the IC50 came out at 1 nM.

In turn, `O=C(O)CN1C[C@H](CN2CCC(O)(CCCc3ccccc3)CC2)[C@@H](c2ccccc2)C1` yielded an IC90 in data set [1] of 3000 nM. For the same compound, the IC50 in data set [2] was 6 nM.

With `O=C(O)[C@@H](CC1CC1)N1C[C@H](CN2CCC(CCCc3ccccc3)CC2)[C@@H](c2ccccc2)C1`, in data set [1], it took 11 nM to reach the 90% level (IC90). Further, in data set [2], the IC50 turned out to be 0.1 nM.

For `OC[C@H](C1CCCCC1)N1C[C@H](CN2CCC(O)(CCCc3ccccc3)CC2)[C@@H](c2ccccc2)C1`, the IC50 in [2] was found to be 1 nM.

In data set [1], `CC(C)[C@H](C(=O)O)N1C[C@H](CN2CCC(CCCc3ccccc3)CC2)[C@@H](c2ccccc2)C1` displayed a 90% effect concentration (IC90) of 111 nM. In addition, in data set [2], the IC50 is 0.7 nM.

On to `COC(=O)[C@H](C1CCCCC1)N1C[C@H](CN2CCC(O)(CCCc3ccccc3)CC2)[C@@H](c2ccccc2)C1`, for which the IC50 in data set [2] was 4 nM.

In data set [1], `O=C(O)[C@H](C1CCCCC1)N1C[C@H](CN2CCC(O)(CCCc3ccccc3)CC2)[C@@H](c2ccccc2)C1` yielded an IC90 greater than 300 nM. Further, the IC50 in data set [2] came out at 5 nM.

Take `O=C(O)[C@@H](C1CCCC1)N1C[C@H](CN2CCC(CCCc3ccccc3)CC2)[C@@H](c2ccccc2)C1`: the IC90 in data set [1] stood at 11 nM. In data set [2], the half-maximal inhibitory concentration (IC50) was determined as 0.2 nM.

Regarding `O=C(O)[C@@H](CC1CCC1)N1C[C@H](CN2CCC(CCCc3ccccc3)CC2)[C@@H](c2ccccc2)C1`, the results for the IC50 in [8] and in data set [2] were 2700 nM and 0.1 nM, respectively. The clearance in [3] is 26.5 mL/min/kg. This compound registered a concentration for an effect of 90% (IC90) in data set [1] of 1.2 nM. Moreover, the IC95 in data set [4] is less than 8 nM. Also, the bioavailability in data set [5] is 29%. In addition, the Vd in data set [6] came to 5.9 L/kg. In data set [7], the half-life was 3 h.

As to `CC(C)[C@H](C(=O)O)N1C[C@H](CN2CCC(c3ccc(F)cc3)CC2)[C@@H](c2ccccc2)C1`, the clearance in data set [17] came to 14.6 mL/min/kg; in [3], 68.3 mL/min/kg; in [10], 13.1 mL/min/kg. For the same compound, the 50% inhibitory concentration (IC50) in [8] was greater than 10000 nM; in [2], 36 nM. For the same compound, the bioavailability in [9] is 84%; in data set [5] it was 50%; in data set [14], 34%. This compound displayed a 90% effect concentration (IC90) in [1] greater than 100 nM. This compound showed an IC95 in [4] greater than 3000 nM. Further, the Vd in data set [12] was found to be 4.2 L/kg; in [6], 8.4 L/kg; in data set [13], 8.6 L/kg. Moreover, the half-life in data set [7] is 1.9 h; in [15], 6.4 h; in data set [16], 7.8 h.

In data set [1], `O=C(OCc1ccccc1)[C@H](C1CCCCC1)N1C[C@H](CN2CCC(O)(CCCc3ccccc3)CC2)[C@@H](c2ccccc2)C1` showed a concentration for an effect of 90% (IC90) greater than 300 nM. For the same compound, in data set [2], the IC50 amounted to 24 nM.

In the case of `COC(=O)[C@@H](C1CCCCC1)N1C[C@H](CN2CCC(O)(CCCc3ccccc3)CC2)[C@@H](c2ccccc2)C1`, the IC50 in data set [2] came out at 1 nM.

In data set [1], `CC(C)[C@H](C(=O)O)N1C[C@H](CN2CCC(O)(CCCc3ccccc3)CC2)[C@@H](c2ccccc2)C1` gave an IC90 of 333 nM. Also, the IC50 in data set [2] was 2 nM.

Regarding `O=C(O)[C@@H](c1ccccc1)N1C[C@H](CN2CCC(O)(CCCc3ccccc3)CC2)[C@@H](c2ccccc2)C1`, in [1], the IC90 stood at 33 nM. Further, the IC50 in [2] is 0.8 nM.

For `O=C(O)[C@@H](C1CC1)N1C[C@H](CN2CCC(CCCc3ccccc3)CC2)[C@@H](c2ccccc2)C1`, in data set [1], the IC90 was determined as 300 nM. In addition, the 50% inhibitory concentration (IC50) in [2] turned out to be 3 nM.

As to `OC1(CCCc2ccc(-c3nnn[nH]3)cc2)CCN(C[C@H]2CN(CC3CCCCC3)C[C@@H]2c2ccccc2)CC1`, the IC50 in [8] is greater than 10000 nM. In data set [1], this compound showed an IC90 of 4 nM. This compound also registered a bioavailability in data set [5] of 0%. The half-life in data set [7] was 0.3 h.
